Test results published in ChEMBL document CHEMBL4334432, “Development of benzochalcone derivatives as selective CYP1B1 inhibitors and anticancer agents” (Medchemcomm, 2019).

Tests used:
Cytochrome P450 1A2 = molecular target: T1, Cytochrome P450 1A2 (Homo sapiens, UniProt P05177); assay: Inhibition of recombinant human CYP1A2 expressed in supersomes using 7-ethoxyresorufin as substrate after 50 mins in presence of NADP+ by EROD assay; type: ADME
T1 sequence (P05177 whole entry): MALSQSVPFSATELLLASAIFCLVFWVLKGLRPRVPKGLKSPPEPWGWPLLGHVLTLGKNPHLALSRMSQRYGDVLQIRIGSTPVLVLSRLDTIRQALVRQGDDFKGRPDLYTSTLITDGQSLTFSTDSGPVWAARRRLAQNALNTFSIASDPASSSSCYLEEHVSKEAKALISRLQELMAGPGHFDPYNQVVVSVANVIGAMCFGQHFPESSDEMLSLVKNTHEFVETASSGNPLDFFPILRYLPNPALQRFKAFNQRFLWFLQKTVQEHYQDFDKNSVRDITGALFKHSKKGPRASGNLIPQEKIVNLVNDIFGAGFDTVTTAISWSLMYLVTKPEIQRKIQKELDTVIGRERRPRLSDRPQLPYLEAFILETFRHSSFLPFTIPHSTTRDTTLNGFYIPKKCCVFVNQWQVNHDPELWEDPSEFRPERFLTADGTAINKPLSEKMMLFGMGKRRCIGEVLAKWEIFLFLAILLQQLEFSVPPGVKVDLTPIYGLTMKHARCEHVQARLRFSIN

[1] = Cytotoxicity against drug-resistant human MDA-MB-435/LCC6MDR1 cells assessed as reduction in cell viability after 48 hrs by MTT assay; type: functional, cell-based; details: MDA-MB-435/LCC6 MDR1, 48 h
MCF7 [2] = assay: Cytotoxicity against drug-resistant […]-induced human MCF7 cells overexpressing CYP1B1 assessed as reduction in cell viability after 48 hrs by MTT assay; type: functional, cell-based; details: MCF7, 48 h
MCF7 [3] = assay: cells; details: Homo sapiens, MCF7, 48 h
Description: Cytotoxicity against human MCF7 cells assessed as reduction in cell viability after 48 hrs by MTT assay

MDA-MB-231 = assay: cells; details: Homo sapiens, MDA-MB-231, 48 h
Description: Cytotoxicity against human MDA-MB-231 cells assessed as reduction in cell viability after 48 hrs by MTT assay

Cytochrome P450 1A1 = molecular target: T2, Cytochrome P450 1A1 (Homo sapiens, UniProt P04798); assay: Inhibition of recombinant human CYP1A1 expressed in supersomes using 7-ethoxyresorufin as substrate after 15 mins in presence of NADP+ by EROD assay; type: ADME
T2 sequence (P04798 whole entry): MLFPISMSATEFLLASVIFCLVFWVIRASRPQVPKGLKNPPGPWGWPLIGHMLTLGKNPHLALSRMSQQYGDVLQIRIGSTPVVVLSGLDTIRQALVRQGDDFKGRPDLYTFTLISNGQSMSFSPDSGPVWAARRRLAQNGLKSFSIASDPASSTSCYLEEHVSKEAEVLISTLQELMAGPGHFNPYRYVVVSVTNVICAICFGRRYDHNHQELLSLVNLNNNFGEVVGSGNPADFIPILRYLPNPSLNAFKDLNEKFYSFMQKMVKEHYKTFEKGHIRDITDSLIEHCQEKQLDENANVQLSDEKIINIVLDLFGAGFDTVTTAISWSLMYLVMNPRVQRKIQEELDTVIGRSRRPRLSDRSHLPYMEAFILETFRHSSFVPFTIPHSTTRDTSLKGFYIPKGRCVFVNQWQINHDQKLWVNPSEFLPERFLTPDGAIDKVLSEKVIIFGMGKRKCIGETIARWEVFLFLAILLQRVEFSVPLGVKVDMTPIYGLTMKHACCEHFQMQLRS

SMILES	IC50 (Cytochrome P450 1A2)	also measured
O=C(/C=C/c1ccccc1)c1ccc2ccccc2c1	> 1000 nM	IC50 [1]: 19400 nM; IC50 (MCF7 [2]): 18200 nM; IC50 (MCF7 [3]): 24700 nM; IC50 (MDA-MB-231): 34100 nM
O=C(/C=C/c1ccccc1)c1ccc2ccccc2c1O	> 1000 nM	
O=C(/C=C/c1ccccc1Cl)c1ccc2ccccc2c1O	> 1000 nM	
O=C(/C=C/c1ccc(Cl)cc1)c1ccc2ccccc2c1O	> 1000 nM	
COc1ccc(OC)c2c(OC)c(/C=C/C(=O)c3ccc4ccccc4c3O)cc(OC)c12	> 1000 nM	
O=C(CCc1ccccc1)c1ccc2ccccc2c1O	> 1000 nM	
COc1ccc(OC)c2c(O)c(C(=O)/C=C/c3ccccc3)cc(OC)c12	735 nM	
COc1c(C(=O)/C=C/c2ccccc2)ccc2ccccc12	> 1000 nM	
O=C(/C=C/c1ccncc1)c1ccc2ccccc2c1O	> 1000 nM	
Nc1c(C(=O)/C=C/c2ccccc2)ccc2ccccc12	> 1000 nM	
O=C(/C=C/c1ccccc1O)c1ccc2ccccc2c1O	> 1000 nM	
COc1ccccc1/C=C/C(=O)c1ccc2ccccc2c1O	> 1000 nM	
O=C(/C=C/c1cccc(F)c1)c1ccc2ccccc2c1O	> 1000 nM	
O=C(/C=C/c1ccc(F)cc1)c1ccc2ccccc2c1O	> 1000 nM	
O=C(/C=C/c1ccccn1)c1ccc2ccccc2c1O	> 1000 nM	
O=C(/C=C/c1cccnc1)c1ccc2ccccc2c1O	227 nM	
Nc1nc(-c2ccccc2)cc(-c2ccc3ccccc3c2)n1	> 1000 nM	
O=C(/C=C/c1cccc(Cl)c1)c1ccc2ccccc2c1O	> 1000 nM	
O=C(/C=C/c1ccc[nH]1)c1ccc2ccccc2c1O	> 1000 nM	
O=C(/C=C/c1ccccc1F)c1ccc2ccccc2c1O	> 1000 nM	
O=c1cc(-c2ccccc2)oc2c1ccc1ccccc12 [ALPHA-NAPHTHOFLAVONE]		IC50 (Cytochrome P450 1A1): 80.3 nM; IC50 [1]: 82300 nM; IC50 (MCF7 [2]): > 100000 nM; IC50 (MCF7 [3]): 80700 nM; IC50 (MDA-MB-231): > 100000 nM
O=c1[nH]cc(F)c(=O)[nH]1 [FLUOROURACIL]		IC50 [1]: > 100000 nM; IC50 (MCF7 [2]): > 100000 nM; IC50 (MCF7 [3]): > 100000 nM; IC50 (MDA-MB-231): 93800 nM
